Read-outs that look alike come from different tables or passages of the source.
Legend:
Format in all cases: cell-based, Plasmodium falciparum
[1] = tested on: protein translation in P. falciparum (Cam3.II-rev) schizonts; experiment: Protein translation assay (O-propargyl-puromycin incorporation); details: read-out: IC50 (Translation)
Procedure: (§1) 723 then fixed for 10 minutes (4% formaldehyde/0.02% glutaraldehyde in PBS). The click reaction was
(§2) 724 performed for 1 h in the presence of CuSO4 (0.1 mM), THPTA (0.5 mM) and sodium ascorbate (5 mM) to
(§3) 725 bring about azide-alkyne cycloaddition to Alexa Fluor 488 azide (0.1 µM). Flow cytometry was performed
(§4) 726 using the FITC and Cy™5.5 channels to detect the Alexa Fluor 488 and PI, respectively.
(§5) 729 Cam 3.II_Rev (25) trophozoite-infected RBCs (25-30 h p.i.) were incubated with inhibitor for 3 h at 10%
(§6) 730 hematocrit and 5% parasitemia. The RBC pellet was washed 3 x in PBS + cOmplete. Cells were centrifuged
(§7) 731 at 380 x g for 5 min and the pelleted cells lysed by resuspension in PBS + 0.05% saponin for 5 min on ice.

[2] = tested on: P. falciparum (Cam3.II-rev) schizont stage; experiment: 3 h drug pulse viability assay; details: read-out: IC50 (Viability)
Procedure: 553 Sigma-Aldrich) for 48-72 h. For drug pulse assays, tightly synchronized parasites (1-1.5% parasitemia,
554 0.2% final hematocrit) were added to the plates and incubated for 3 h. Drugs were removed and the
555 parasitemia assessed in the trophozoite stage of the next cycle.
557 Compounds were tested against a range of drug resistant field isolates and laboratory strains using a
558 modified [3H]-hypoxanthine incorporation assay, as previously reported (46). Field isolates 7G8, Cam3.1,
559 Dd2, K1, TM90C2B and NF54 were obtained from MR4 (www.beiresources.org).
561 Mammalian cell culture experiments
562 The HepG2 (Human hepatocyte carcinoma) cell line was procured from ATCC (American Type
563 Culture Collection, Manassas, USA; HB-8065) and viability assessed using Cell Titer-GLO luminescent
564 cell viability assay reagents (Promega, catalogue number: G7570) (47, 48). For the assay, 2000 cells/well
565 were plated in 384-well plates 24 h prior to the experiment and incubated at 37°C in a CO2 incubator. The
566 medium was removed and cells were treated with fresh medium containing either vehicle (0.5% DMSO)
567 or serially diluted test compounds or doxorubicin (1.3 nM to 25 µM) in a final volume of 50 µl/well and
568 further incubated for 72 h at 37°C in a CO2 incubator.
569 were treated with 5 µl of 1% Triton X-100 (final assay conc. 0.1%). Following incubation, 25 µl of medium
570 was discarded and 25 µl of Cell Titer-GLO reagent was added to each well and the plate was kept on a plate
571 shaker for 15 min at 25°C with shaking at 300 rpm. Luminescence signals were measured in a Spectramax
572 M5 reader (Molecular Devices).
574 H1650 is a human lung cancer derived ATG7-null cell line (49) that can be used to assess effects on targets
576 adenocarcinoma; bronchoalveolar carcinoma). Other cells lines used are: H460 (NCI-H460; human lung;
577 carcinoma; large cell lung cancer; ATCC: HTB-177); and HCT116 (human colon; colorectal carcinoma;
578 ATCC: CCL-247; Lot : 5056139). […]
580 inhibitors and cell viability was assessed by comparing the ATP content in compound-treated wells with […]

PfYRS knockdown line = experiment: Growth inhibition of aptamer-regulatable PfYRS knockdown line (luciferase, 72 h); details: for IC50: Plasmodium falciparum, read-out: IC50 against the PfYRS knockdown line (control compounds)
Text: 674 Generation and analysis of PfYRS knock-down transfectants
675 A conditional regulatable line for the cytosolic PfYRS (PF3D7_0807900) was generated by integrating the
676 gene regulatable system, TetR-DOZI-RNA aptamer module at the 3'-end of the target gene, in P. falciparum
677 parasites using CRISPR-Cas9 and homology-driven repair (55, 56). A line harbourbing an aptamer-
678 regulatable fluorescent protein (eYFP) integrated in the cg6 locus is used as the control (55). Transfection
679 into parasites was carried out by preloading RBCs with the donor vector as described previously (57).
680 Briefly, 50 μg of purified plasmid DNA was mixed with human RBCs and subjected to 8 square wave
681 electroporation pulses of 365 V for 1 ms each, separated by 0.1 s in a 0.2 cm cuvette. The plasmid DNA
682 preloaded cells were inoculated with NF54 expressing Cas9 and T7 RNA polymerase. […]
696 Stock solutions of ML901, DHA or borrelidin (Cayman Chemicals) were dispensed into 96-well U-bottom
697 BD Falcon™ plates and serially diluted in complete medium to yield final concentrations ranging from 20-
698 0.08 nM. Synchronous ring-stage YRScyt conditional knockdown line and the aptamer-regulatable control
699 line in varying aTc concentrations (high = 50 or 500 nM, low = 1 nM, and no aTc) were distributed into
700 the drug plate. Lowest drug treatment and a lethal dose of chloroquine (200 nM) served as reference
701 controls. Growth inhibition was analysed after 72 h using the Renilla-Glo(R) Luciferase Assay System (ref
702 no E2750 Promega) and the GloMax® Discover Multimode Microplate Reader (Promega), and IC50 values
703 were obtained from corrected dose-response curves using GraphPad Prism (version 8; GraphPad Software). […]
706 CRISPR/Cas9 was used to generate parasites encoding the S234C mutation in exon 2 of PfYRS, as shown
707 in Suppl Figure 6. Two guide RNAs (gRNA1: […] and gRNA2:
708 […]) were selected using Benchling (benchling.com), and cloned into the
709 pDC2-coCas9-gRNA plasmid essentially as described previously (58). A donor template of 645 bp,
710 encompassing the majority of the 708 bp exon 2, was synthesized (ThermoFisher) and cloned into the
711 AatII/EcoRI sites of both the pDC2-coCas9-gRNA1 and pDC2-coCas9-gRNA2 plasmids. In addition to
712 the TCC>TGC (S234C) mutation, additional silent shield mutations were introduced to prevent gRNA-
713 Cas9 complex binding, as shown in Suppl Figure 6. Ring-stage P. falciparum parasites (Dd2 strain) at 10%
714 parasitemia (150 µL of packed cells) were transfected with 50 µg of plasmid DNA using a BioRad Gene
715 Pulser II (310 V, 950 µF), and selected with 5 nM WR99210 (Jacobus Pharmaceuticals) for 8 days, after
716 which culture was continued without drug pressure until transfectants were obtained. Clones of the
717 PfYRSS234C mutant parasites were isolated by limiting dilution and verified by Sanger sequencing.
719 Protein translation assay
720 P. falciparum Cam 3.II_Rev (25) schizont- (43-48 h p.i.) infected RBCs were pre-incubated with inhibitor
Using a modification of a published procedure (14), the
722 cells were labelled with O-propargyl-puromycin (OPP; 4 µM) for 1 h, washed 3x (PBS +3% serum) and
as §1, §2, §3, §4, §5, §6, §7

**Q.** `CC1(C)N=C(N)N=C(N)N1OCCCOc1cc(Cl)c(Cl)cc1Cl` [WR99210] was tested. Which IC50 ([1]; schizont stage Cam3.II-rev, 1 h pre-incubation then OPP incorporation over next 2 h) did it give?
**A.** > 1000 nM

**Q.** And the IC50 ([2]; schizont stage Cam3.II-rev, 3 h exposure, viability at trophozoite stage of next cycle)?
**A.** 1.9 nM

**Q.** How did the IC50 (PfYRS knockdown line; high aTc (500 nM)) turn out when `C[C@@H]1C[C@H](C)C[C@H](C)[C@@H](O)CC(=O)O[C@H]([C@@H]2CCC[C@H]2C(=O)O)C/C=C/C=C(/C#N)[C@H](O)[C@@H](C)C1` [borrelidin] was run?
**A.** 0.07 nM

**Q.** What about the IC50 (PfYRS knockdown line; low aTc (1 nM)) of the same compound?
**A.** 0.07 ± 0.01 nM

**Q.** What about the IC50 (PfYRS knockdown line; no aTc) of the same compound?
**A.** 0.07 ± 0.01 nM

**Q.** What about the “Fold change in IC50 (high aTc/ no aTc), PfYRS knockdown line (control compounds)” value (PfYRS knockdown line; high aTc 500 nM) of the same compound?
**A.** no change

**Q.** With `C[C@@H]1C[C@@H]([C@H](O)CC2CC(=O)NC(=O)C2)C(=O)[C@@H](C)C1` [cycloheximide] as the compound, how does the IC50 ([1]; Plasmodium falciparum) read?
**A.** 2000 nM

**Q.** And the IC50 ([2]; Plasmodium falciparum, 3 h)?
**A.** 3200 nM
